Laboratory results as given in patent US20210052516A1, “METHOD FOR INCREASING AKKERMANSIA IN INTESTINAL BACTERIAL FLORA BY INGESTING ASTAXANTHIN” (Fuji Chemical Industries Co., Ltd., priority 2018, published 2021).

Legend:
[1] = system: Akkermansia muciniphila; conditions: articles reported so far; mice; cited from earlier work
[2] = system: bacteria of the genus Akkermansia (Akkermansia muciniphila); test: Intestinal bacterial flora in cecum contents, 16S rRNA sequencing: Akkermansia; assay type: in vivo; conditions: diet containing 0.02% astaxanthin for four weeks vs normal diet, 6-week-old Wistar rats
Text: Thus, as detailed below, 6-week-old Wistar rats (rodents) were used to compare the intestinal bacterial floras of a group fed with an astaxanthin-containing diet for four weeks and a group fed with a normal diet for four weeks. […] Six-week-old Wistar rats (rodents) were used to compare the intestinal bacterial flora of a group fed with a diet containing 0.02% astaxanthin (an Asx group) and the intestinal bacterial flora of a group fed with a normal diet (a control group). Saline or corticotropin-releasing hormone (CRH) was intravenously administered to the rats after feeding each group with each corresponding diet for four weeks. Three hours after administration, the rats were sacrificed and the intestinal bacterial floras in the cecum contents of each group were analyzed and compared. […] The analysis method included extracting DNA in the cecum contents, amplifying the V3-V4 region in a 16SrRNA gene, and performing sequencing.

[3] = system: Clostridia; test: Intestinal bacterial flora in cecum contents, 16S rRNA sequencing: Clostridia; assay type: in vivo, Wistar rats; conditions: diet containing 0.02% astaxanthin for four weeks, control group 58.2%
Text: (§1) Six-week-old Wistar rats (rodents) were used to compare the intestinal bacterial flora of a group fed with a diet containing 0.02% astaxanthin (an Asx group) and the intestinal bacterial flora of a group fed with a normal diet (a control group).
(§2) Saline or corticotropin-releasing hormone (CRH) was intravenously administered to the rats after feeding each group with each corresponding diet for four weeks.
(§3) Three hours after administration, the rats were sacrificed and the intestinal bacterial floras in the cecum contents of each group were analyzed and compared. The result is shown in the graph of FIG. 1.
(§4) The analysis method included extracting DNA in the cecum contents, amplifying the V3-V4 region in a 16SrRNA gene, and performing sequencing.

[4] = system: Lactobacillus; test: Intestinal bacterial flora in cecum contents, 16S rRNA sequencing: Lactobacillus; assay type: in vivo, Wistar rats; conditions: diet containing 0.02% astaxanthin for four weeks, control group 10.9%
Text: as §1, §2, §3, §4

[5] = system: intestinal peristaltic movement induced by CRH; test: Intestinal peristaltic movement induced by CRH administration; assay type: in vivo, Wistar rats; conditions: diet containing 0.02% astaxanthin for four weeks; CRH intravenously
Text: as §1, §2
Furthermore, enhancement of intestinal peristaltic movement induced by administration of CRH was reduced in the Asx group.

[6] = Body weight of a rodent; assay type: in vivo; conditions: diet containing 0.02% astaxanthin vs normal diet; 24-day-old Wistar rats; PND72,76
Text: Twenty four-day-old Wistar rats (rodents) were used to compare the body weights of a group fed with a diet containing 0.02% astaxanthin (an Asx group) and the body weights of a group fed with a normal diet (a control group).

[7] = Astaxanthin concentration in human blood (HPLC); assay type: in vivo; conditions: 1 to 60 mg of astaxanthin per day
Protocol: Next, an astaxanthin concentration in human blood was investigated.
In this context, a blood astaxanthin concentration means an astaxanthin concentration in blood serum or blood plasma.
A blood astaxanthin concentration was measured by HPLC.
Five hundred microliters of 50 μg/ml butylhydroxytoluene in ethanol, 100 μl of 100 ng/ml internal standard (ethyl 8′-apo-beta-caroten-8′-oate, Carote Nature, 1010) in acetone, and 500 μl of distilled water were added to 100 μl of the obtained blood serum or blood plasma sample, and the mixture was stirred vigorously for 15 seconds by a vortex mixer.
Furthermore, 5 ml of hexane was added to the blood serum or blood plasma, and subsequently the mixture was stirred vigorously for 15 seconds by the vortex mixer three times and centrifuged at 3500 rpm for 10 minutes.
Four milliliters of the supernatant after centrifugation was collected and filtrated through a membrane filter with a mesh size of 0.45 μm. […]
In parallel, a standard solution was prepared by adding 1 ml of 10 μg/ml internal standard (ethyl 8′-apo-beta-caroten-8′-oate) in acetone to 100 ml of 100 ng/ml astaxanthin (astaxanthin, ALEXIS BIOCHEMICALS, 460-031-M250) in acetone, and was also subjected to reverse-phase HPLC. The blood astaxanthin concentration was calculated based on the peak area ratio of the above-mentioned two solutions obtained by HPLC. […]

[8] = Change in astaxanthin concentration in human blood on long-term ingestion; assay type: in vivo; conditions: 12 mg/day astaxanthin in free form (two capsules of Haematococcus alga extract) for 42 days
Protocol: Next, a test on humans was performed to monitor how an astaxanthin concentration in blood (in blood plasma) changed when astaxanthin was ingested for a long period. A study was performed as follows:
Ten healthy Japanese males and females aged 20 years or older and younger than 50 years
The subjects ingested two capsules per day (equivalent to 12 mg/day astaxanthin in free form) together with water 30 minutes after breakfast for 42 days, with one capsule containing 60 mg of Haematococcus alga extract (equivalent to 6 mg of astaxanthin in free form) and 270 mg of edible oil and fat.
Blood collection was performed 1, 6, 13, 20, 27, 34, and 42 days after the first ingestion of the capsules to obtain blood plasma. The blood astaxanthin concentration was measured by the above-mentioned analytical method (HPLC).

[9] = in vivo; cited from earlier work

Structure (SMILES) | effect on Akkermansia muciniphila population [1] | number of bacteria of the genus Akkermansia in the Asx group relative to the control group [2] | proportion of Clostridia in the intestinal bacterial flora of the Asx group [3] [%] | proportion of Lactobacillus in the intestinal bacterial flora of the Asx group [4] [%] | enhancement of intestinal peristaltic movement induced by administration of CRH [5] | increase in body weight [6] | blood astaxanthin concentration (serum or plasma), range [7] | astaxanthin concentration in human blood plasma at plateau [8] | time after beginning of ingestion at which blood plasma concentration started to plateau [8] | absorption percentage in the intestine [9]
COc1cc(CNC(=O)CCCC/C=C/C(C)C)ccc1O [Capsaicin] | effect of increasing Akkermansia muciniphila |  |  |  |  |  |  |  |  | 
CC1=C(/C=C/C(C)=C/C=C/C(C)=C/C=C/C=C(C)/C=C/C=C(C)/C=C/C2=C(C)C(=O)C(O)CC2(C)C)C(C)(C)CC(O)C1=O (stereo not drawn) [astaxanthin, 3,3′-dihydroxy-β,β-carotene-4,4′-dione] |  | about 11.7 times | 47.6 | 5.9 | reduced | clearly less | no more than 600 ng/ml | around 200 ng/ml | about 6 days | about 5%
